# Experimental data taken from ChEMBL document CHEMBL1201862, “PubChem BioAssay data set” (2004).
#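 All cell lines were grown in 96-well plates and treated with compound for 48 hours. GI50 is the concentration that inhibits growth by half.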 Calls of active or inactive are those of the source. Rule as the data show it: active = GI50 up to about 1.1 µM and inactive = higher.
# Columns and labels:
# Assay in all cases: growth of human tumour cells (NCI), 48 h
# [1] = system: 786-0
# [2] = system: A498
# [3] = system: A549
# [4] = system: ACHN
# [5] = system: COLO 205
# [6] = system: DMS-114
# [7] = system: DMS-273
# [8] = system: HOP-92
# [9] = system: IGROV-1
# [10] = system: KM-20L2
# [11] = system: KM12
# [12] = system: NCI-H23
# [13] = system: OVCAR-5
# [14] = system: RXF 393
# [15] = system: SN12C
# [16] = system: SNB-78
# [17] = system: UACC-257
# [18] = system: SNB-19
# [19] = system: Hs-578T
# [20] = system: NCI/ADR-RES
SMILES,GI50 [1],GI50 [2],GI50 [3],GI50 [4],GI50 [5],GI50 [6],GI50 [7],GI50 [8],GI50 [9],GI50 [10],GI50 [11],GI50 [12],GI50 [13],GI50 [14],GI50 [15],GI50 [16],GI50 [17],GI50 [18],GI50 [19],GI50 [20]
COc1cc(/C=C/C(=O)c2sc(-n3nc(-c4ccccc4)cc3-c3ccccc3)nc2C)ccc1O,> 100 µM (inactive),> 100 µM (inactive),> 100 µM (inactive),> 100 µM (inactive),> 100 µM (inactive),5.35 µM (inactive),> 100 µM (inactive),2.47 µM (inactive),94.6 µM (inactive),> 100 µM (inactive),15.5 µM (inactive),> 100 µM (inactive),> 100 µM (inactive),13 µM (inactive),> 100 µM (inactive),> 100 µM (inactive),> 100 µM (inactive),,,
O=C(CCc1cc(-c2ccco2)n(-c2ccc([N+](=O)[O-])cc2[N+](=O)[O-])n1)Nc1ccccc1,> 100 µM (inactive),> 100 µM (inactive),> 100 µM (inactive),> 100 µM (inactive),> 100 µM (inactive),> 100 µM (inactive),> 100 µM (inactive),> 100 µM (inactive),> 100 µM (inactive),> 100 µM (inactive),> 100 µM (inactive),> 100 µM (inactive),> 100 µM (inactive),> 100 µM (inactive),> 100 µM (inactive),> 100 µM (inactive),> 100 µM (inactive),> 100 µM (inactive),,
Cc1cc(C)c(C(=O)OC(c2ccccc2)C(c2ccccc2)N2CCOCC2)c(C)c1 (stereo not drawn),> 100 µM (inactive),> 100 µM (inactive),> 100 µM (inactive),> 100 µM (inactive),> 100 µM (inactive),> 100 µM (inactive),> 100 µM (inactive),,> 100 µM (inactive),> 100 µM (inactive),> 100 µM (inactive),> 100 µM (inactive),,91 µM (inactive),> 100 µM (inactive),> 100 µM (inactive),> 100 µM (inactive),> 100 µM (inactive),,
O=C1OC(c2ccccc2)=N/C1=C/NC(Cc1c[nH]cn1)C(=O)O (stereo not drawn),> 100 µM (inactive),> 100 µM (inactive),> 100 µM (inactive),> 100 µM (inactive),> 100 µM (inactive),> 100 µM (inactive),> 100 µM (inactive),> 100 µM (inactive),> 100 µM (inactive),> 100 µM (inactive),,> 100 µM (inactive),> 100 µM (inactive),> 100 µM (inactive),> 100 µM (inactive),> 100 µM (inactive),> 100 µM (inactive),> 100 µM (inactive),,
Cc1ccc(S(=O)(=O)N2CCN(C=S)CC2)cc1,> 100 µM (inactive),> 100 µM (inactive),> 100 µM (inactive),> 100 µM (inactive),> 100 µM (inactive),> 100 µM (inactive),> 100 µM (inactive),,> 100 µM (inactive),> 100 µM (inactive),> 100 µM (inactive),> 100 µM (inactive),> 100 µM (inactive),> 100 µM (inactive),> 100 µM (inactive),> 100 µM (inactive),> 100 µM (inactive),> 100 µM (inactive),,
O=C(CC1Sc2ccccc2NC1=O)Nc1cccc(Cl)c1 (stereo not drawn),39.4 µM (inactive),28.6 µM (inactive),43.8 µM (inactive),31.8 µM (inactive),,34.2 µM (inactive),28.2 µM (inactive),25.5 µM (inactive),40.9 µM (inactive),38.2 µM (inactive),,55.5 µM (inactive),> 100 µM (inactive),33.3 µM (inactive),48.2 µM (inactive),47.9 µM (inactive),> 100 µM (inactive),46.9 µM (inactive),,
CCOC(=O)NC(=O)c1cn(CCOC(=O)NCCCCCCNC(=O)OCCn2cc(C(=O)NC(=O)OCC)c(=O)[nH]c2=O)c(=O)[nH]c1=O,> 100 µM (inactive),> 100 µM (inactive),> 100 µM (inactive),> 100 µM (inactive),> 100 µM (inactive),> 100 µM (inactive),> 100 µM (inactive),,> 100 µM (inactive),> 100 µM (inactive),> 100 µM (inactive),,,> 100 µM (inactive),> 100 µM (inactive),> 100 µM (inactive),> 100 µM (inactive),> 100 µM (inactive),,
CCCC/C=C1\CCC(CN2CCCCC2)C1=O (stereo not drawn),6.31 µM (inactive),25.7 µM (inactive),33.3 µM (inactive),29.3 µM (inactive),12 µM (inactive),6.65 µM (inactive),,10.9 µM (inactive),19.1 µM (inactive),15.2 µM (inactive),,28.1 µM (inactive),34.7 µM (inactive),10.9 µM (inactive),11.5 µM (inactive),4.2 µM (inactive),24.9 µM (inactive),31.7 µM (inactive),> 100 µM (inactive),> 100 µM (inactive)
CC12N=NNC1C(=O)NC2=O (stereo not drawn),> 100 µM (inactive),89.3 µM (inactive),> 100 µM (inactive),> 100 µM (inactive),> 100 µM (inactive),> 100 µM (inactive),> 100 µM (inactive),> 100 µM (inactive),> 100 µM (inactive),> 100 µM (inactive),> 100 µM (inactive),> 100 µM (inactive),,,> 100 µM (inactive),> 100 µM (inactive),> 100 µM (inactive),> 100 µM (inactive),,
S=C1SCC2CCCN12 (stereo not drawn),> 100 µM (inactive),> 100 µM (inactive),> 100 µM (inactive),> 100 µM (inactive),> 100 µM (inactive),> 100 µM (inactive),> 100 µM (inactive),> 100 µM (inactive),> 100 µM (inactive),> 100 µM (inactive),> 100 µM (inactive),,> 100 µM (inactive),> 100 µM (inactive),> 100 µM (inactive),> 100 µM (inactive),> 100 µM (inactive),> 100 µM (inactive),,
C=CCSc1ncnc2c1ncn2C1OC(CO)C(O)C1O (stereo not drawn),79.4 µM (inactive),58.2 µM (inactive),> 100 µM (inactive),20.1 µM (inactive),41.2 µM (inactive),11.4 µM (inactive),11.7 µM (inactive),9.2 µM (inactive),> 100 µM (inactive),55.7 µM (inactive),> 100 µM (inactive),18.2 µM (inactive),60.5 µM (inactive),,6.31 µM (inactive),> 100 µM (inactive),> 100 µM (inactive),> 100 µM (inactive),,
CCCCCC/C=C1\CCC(CN2CCOCC2)C1=O (stereo not drawn),4.23 µM (inactive),18 µM (inactive),> 45.1 µM (inactive),17.4 µM (inactive),17.1 µM (inactive),17.3 µM (inactive),15.9 µM (inactive),16.3 µM (inactive),19 µM (inactive),20.2 µM (inactive),7.64 µM (inactive),16.9 µM (inactive),20.3 µM (inactive),,17.2 µM (inactive),21.8 µM (inactive),15.1 µM (inactive),18.6 µM (inactive),,
NC1CCC[C@H]1O (stereo partly drawn),> 100 µM (inactive),> 100 µM (inactive),> 100 µM (inactive),> 100 µM (inactive),> 100 µM (inactive),> 100 µM (inactive),> 100 µM (inactive),> 100 µM (inactive),> 100 µM (inactive),> 100 µM (inactive),> 100 µM (inactive),> 100 µM (inactive),,> 100 µM (inactive),> 100 µM (inactive),> 100 µM (inactive),> 100 µM (inactive),> 100 µM (inactive),,
COc1cccc2c1C(=O)c1c(O)c3c(c(O)c1C2=O)C[C@@](O)(C(=O)CO)CC3OC1CC(NCCOCC(OC(C)=O)OC(C)=O)C(O)C(C)O1 (stereo partly drawn),< 0.01 µM (active),< 0.01 µM (active),< 0.01 µM (active),< 0.01 µM (active),,< 0.01 µM (active),,< 0.01 µM (active),< 0.01 µM (active),< 0.01 µM (active),< 0.01 µM (active),< 0.01 µM (active),< 0.01 µM (active),< 0.01 µM (active),< 0.01 µM (active),,< 0.01 µM (active),0.00782 µM (active),,
CC(C)(C)OC(=O)C#CC[C@H]1CCCC1/C=C/C(O)=C1/C(=O)NC(CCCNC(=O)OC(C)(C)C)C1=O (stereo partly drawn),40.6 µM (inactive),45.2 µM (inactive),> 100 µM (inactive),40.7 µM (inactive),17.8 µM (inactive),21.3 µM (inactive),26.1 µM (inactive),23.7 µM (inactive),39.5 µM (inactive),25.1 µM (inactive),41.6 µM (inactive),24.9 µM (inactive),88.5 µM (inactive),14.7 µM (inactive),40.1 µM (inactive),,24.2 µM (inactive),30.6 µM (inactive),,
Cn1cnc([N+](=O)[O-])c1Sc1nc2ccccc2o1,14 µM (inactive),19.3 µM (inactive),23.1 µM (inactive),11.5 µM (inactive),1.7 µM (inactive),2.14 µM (inactive),3.01 µM (inactive),4.24 µM (inactive),13.2 µM (inactive),4.66 µM (inactive),5.18 µM (inactive),5.22 µM (inactive),14.2 µM (inactive),8.91 µM (inactive),6.78 µM (inactive),13.1 µM (inactive),5.86 µM (inactive),17.7 µM (inactive),,
